These are literature values, as cited in US20080051459A1, “LONG TERM 24-HOUR INTESTINAL ADMINISTRATION OF LEVODOPA/CARBIDOPA” (Solvay Pharmaceuticals GmbH, priority 2006, published 2008).

The series concerns patient. As to conditions: one patient; from 86 to 100 mg/hour in about 5 weeks.

Consider `N[C@@H](Cc1ccc(O)c(O)c1)C(=O)O` [levodopa], for which the “Increase in administration rate (dose requirement)” value is given as 16%.
